From patent publication US5968958A, “5-Methanesulfonamido-3H-isobenzofuran-1-ones as inhibitors of cyclooxygenase-2” (Merck Frosst Canada, Inc., priority 1997, dated 1999)
Where two headings read alike, the source gives them in different places.

Key:
cyclooxygenase-2 = target: T1, cyclooxygenase-2 (Homo sapiens, UniProt P35354); assay: Whole cell cyclooxygenase assay, PGE2 synthesis in human osteosarcoma 143 cells (COX-2); format: cell-based
T1 construct: human osteosarcoma 143 cells (which specifically express cyclooxygenase-2); endogenous in cells; host or cells: human osteosarcoma 143 cells
T1 sequence (P35354 18-604): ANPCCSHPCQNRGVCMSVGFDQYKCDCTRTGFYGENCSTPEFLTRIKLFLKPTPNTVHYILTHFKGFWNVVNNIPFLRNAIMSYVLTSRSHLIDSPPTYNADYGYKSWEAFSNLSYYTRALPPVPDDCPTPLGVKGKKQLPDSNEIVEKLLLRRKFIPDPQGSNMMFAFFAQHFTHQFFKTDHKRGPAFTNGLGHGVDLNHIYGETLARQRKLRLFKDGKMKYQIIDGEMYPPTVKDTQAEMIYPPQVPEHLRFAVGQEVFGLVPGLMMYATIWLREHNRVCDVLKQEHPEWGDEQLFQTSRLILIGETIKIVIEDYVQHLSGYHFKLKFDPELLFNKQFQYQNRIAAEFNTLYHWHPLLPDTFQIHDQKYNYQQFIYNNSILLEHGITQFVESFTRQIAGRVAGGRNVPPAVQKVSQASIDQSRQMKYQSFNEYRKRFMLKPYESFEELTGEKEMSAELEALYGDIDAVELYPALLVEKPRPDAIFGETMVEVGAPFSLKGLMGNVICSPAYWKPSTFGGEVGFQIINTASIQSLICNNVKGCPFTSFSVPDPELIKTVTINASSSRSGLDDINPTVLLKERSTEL
Procedure: (§1) Inhibition of Cyclooxygenase Activity
(§2) Compounds are tested as inhibitors of cyclooxygenase activity in whole cell cyclooxygenase assays. Both of these assays measure prostaglandin E2 synthesis in response to arachidonic acid, using a radioimmunoassay. Cells used for these assays are human osteosarcoma 143 cells (which specifically express cyclooxygenase-2) and human U-937 cells (which specifically express cyclooxygenase-1). In these assays, 100% activity is defined as the difference between prostaglandin E2 synthesis in the absence and presence of arachidonate.
(§3) In the assay, inhibition is determined by measuring the amount of prostaglandin E2 (PGE2) synthesized in the presence of arachidonic acid, cyclooxygenase-1 or cyclooxygenase-2 and a putative inhibitor. The IC50 values represent the concentration of putative inhibitor required to return PGE2 synthesis to 50% of that obtained as compared to the uninhibited control.

cyclooxygenase-1 = target: T2, cyclooxygenase-1 (Homo sapiens, UniProt P23219); assay: Whole cell cyclooxygenase assay, PGE2 synthesis in human U-937 cells (COX-1); format: cell-based; conditions: inhibition of PGE2 production, arachidonic acid, radioimmunoassay
T2 construct: human U-937 cells (which specifically express cyclooxygenase-1); endogenous in cells; host or cells: human U-937 cells
Procedure: as §1, §2, §3

Rat Paw edema = assay: Rat Paw Edema Assay (carrageenan); format: in vivo, rat (male Sprague-Dawley); conditions: po, 1 hr before subplantar carrageenan (500 μg per paw), paw volume increase at 3 h
Procedure: Rat Paw Edema Assay--Protocol
Male Sprague-Dawley rats (150-200 g) are fasted overnight and are given po either vehicle (1% methocell or 5% Tween 80) or a test compound. One hr later, a line is drawn using a permanent marker at the level above the ankle in one hind paw to define the area of the paw to be monitored. The paw volume (V0) is measured using a plethysmometer (Ugo-Basile, Italy) based on the principle of water displacement. The animals are then injected subplantarly with 50 μl of 1% carrageenan solution in saline (FMC Corp, Maine) into the paw using an insulin syringe with a 25-gauge needle (i.e., 500 μg carrageenan per paw). Three h later, the paw volume (V3) is measured and the increases in paw volume (V3 -V0) are calculated. The animals are sacrificed by CO2 asphyxiation and the absence or presence of stomach lesions scored. Data is compared with the vehicle-control values and percent inhibition calculated. All treatment groups are coded to eliminate observer bias.

[1] = inhibition of PGE2 production, human osteosarcoma 143 cells, arachidonic acid, radioimmunoassay, read-out: Osteosarcoma cells (COX-2) IC50

T2 sequence (P23219 24-599): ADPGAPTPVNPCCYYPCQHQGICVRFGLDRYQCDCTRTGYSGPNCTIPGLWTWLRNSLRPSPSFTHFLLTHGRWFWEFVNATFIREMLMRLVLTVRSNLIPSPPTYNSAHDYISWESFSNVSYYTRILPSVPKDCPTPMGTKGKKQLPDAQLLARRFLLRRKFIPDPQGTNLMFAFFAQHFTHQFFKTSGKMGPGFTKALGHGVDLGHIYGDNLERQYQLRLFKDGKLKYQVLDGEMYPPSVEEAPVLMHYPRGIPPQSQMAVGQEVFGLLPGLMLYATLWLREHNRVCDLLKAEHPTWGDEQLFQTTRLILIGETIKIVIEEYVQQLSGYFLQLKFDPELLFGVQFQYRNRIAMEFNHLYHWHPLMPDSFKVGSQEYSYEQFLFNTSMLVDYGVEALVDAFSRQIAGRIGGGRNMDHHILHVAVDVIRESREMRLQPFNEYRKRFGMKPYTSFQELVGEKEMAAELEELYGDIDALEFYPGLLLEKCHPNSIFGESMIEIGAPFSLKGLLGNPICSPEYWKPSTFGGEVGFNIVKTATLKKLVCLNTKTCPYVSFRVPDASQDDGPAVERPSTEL

IC50 (cyclooxygenase-2; [1]) [nM]	IC50 (cyclooxygenase-1) [nM]	IC50 (cyclooxygenase-2) [nM]	SMILES	ED30 (Rat Paw edema) [mg/kg]
36.7	> 100000		Cc1csc(Sc2cc3c(cc2NS(C)(=O)=O)COC3=O)n1 [Example 4, 5-Methanesulfonamido-6-(4-methyl-2-thiazolythio)-3H-isobenzofuran-1-one]	1
	> 100000	6	CCc1csc(Sc2cc3c(cc2NS(C)(=O)=O)COC3=O)n1 [Example 1, 6-(4-Ethyl-2-thiazolythio)-5-methanesulfonamido-3H-isobenzofuran-1-one]	0.16
33	> 100000		CS(=O)(=O)Nc1cc2c(cc1Sc1ccc(Cl)cn1)C(=O)OC2 [Example 2, 6-(5-Chloro-2-pyridylthio)-5-methanesulfonamido-3H-isobenzofuran-1-one]	1.3
140	> 100000		CS(=O)(=O)Nc1cc2c(cc1Sc1nccs1)C(=O)OC2 [Example 3, 6-(2-Thiazolythio)-5-methanesulfonamido-3H-isobenzofuran-1-one]	
